# Reference: US20080299195A1, “USE OF RANOLAZINE FOR ELEVATED BRAIN-TYPE NATRIURETIC PEPTIDE” (priority 2007, published 2008)
# Test system: patients with non-ST elevation ACS
# Assay: MERLIN-TIMI 36 trial: randomized, double-blind, placebo-controlled trial of ranolazine, stratified by baseline BNP
# Type: in vivo, human
# Conditions: ranolazine vs placebo
# Excerpt: Ranolazine is believed to exert anti-ischemic effects through a reduction in myocardial cellular sodium and calcium overload with a consequent reduction in wall stress. B-type natriuretic peptide (BNP) is released in response to increased wall stress and is a potent indicator of risk in acute coronary syndromes (ACS). This study was a prospective evaluation of the interaction between BNP and the effect of ranolazine as part of a randomized, double-blind, placebo-controlled trial.
# Patients with a non-ST elevation acute coronary syndrome (NSTEACS), refers to patients with chest discomfort or anginal equivalent occurring at rest, lasting ≧10 minutes, and consistent with myocardial ischemia, and the presence of ischemic symptoms (≧5 minutes) at rest within 48 hours of admittance which may include index episode, and having at least one of the following indicators of moderate-high risk: • Elevated cardiac troponin (above local MI limit) or CK-MB (>ULN) • ST-depression (horizontal or down-sloping) >0.1 mV • Diabetes mellitus (requiring insulin or oral therapy) • A Risk Score of >3 wherein one point is assigned for each of the following variables and a total score calculated as the arithmetic sum: • Age >65 years; • Known CAD (prior MI, CABG, PCI or angiographic stenosis ≧50%); • Three or more cardiac risk factors (DM, elevated cholesterol, hypertension, family history); • More than one episode of ischemic discomfort at rest in the prior 24 hours; • Chronic aspirin use in the 7 days preceding onset of symptoms; • ST segment depression ≧0.05 mV; and • Elevated cardiac troponin or CK-MB.
# Plasma BNP were measured (ADVIA® BNP) at baseline (N=4543), 14 days (N=4079), and the Final Visit (N=3328) of the patients with non-ST elevation ACS randomized to ranolazine or placebo in the MERLIN-TIMI 36 trial. During the trial 200 mg of ranolazine (or matching placebo) was administered intravenously over 1 hour, followed by an 80 mg/hr intravenous infusion, which was reduced to 40 mg/hr for patients with an estimated creatinine clearance of less than […] (<0.50 mL/s), and was continued for 12 to 96 hours. On or near the completion (about 1 hour before completion) of the infusion, transition from the IV solution to ranolazine extended release (or matching placebo) occurred and ranolazine extended release (or matching placebo) continued orally at a dose of 1000 mg twice daily until the end of the study. [Morrow, et al., J. Am. Med. Assoc'n. 297 (16), 1775-1783, 2007]. Patients were stratified using BNP >80 pg/mL based upon prior work with this assay. The primary endpoint of the trial was a composite of cardiovascular death, myocardial infarction, or recurrent ischemia (CVD/MI/RI).
structure (smiles),measurement,setting,value
"COc1ccccc1OCC(O)CN1CCN(CC(=O)Nc2c(C)cccc2C)CC1 (racemic) [ranolazine, (±)-N-(2,6-dimethylphenyl)-4-[2-hydroxy-3-(2-methoxyphenoxy)propyl]-1-piperazine-acetamide]",HR for endpoint component of worsening angina,"patients with BNP>80 pg/mL, CI 0.35-0.84, p=0.005",0.55
same,"HR for primary endpoint (composite of cardiovascular death, myocardial infarction, or recurrent ischemia, CVD/MI/RI)","patients with BNP>80 pg/mL, IV 200 mg over 1 h, then 80 mg/hr for 12 to 96 hours, then extended release 1000 mg twice daily orally, 95% CI 0.66-0.94, p=0.009",0.79
same,effect on primary endpoint (CVD/MI/RI),"patients with a negative BNP result, p-interaction=0.052",lack of detectable effect
same,HR for endpoint component of worsening angina,"95% CI 0.63-1.28, p=0.55, p-interaction 0.079",0.90
